Measured values as given in patent US7417025B2, “Use of poly-α2,8-sialic acid mimetic peptides to modulate NCAM functions” (Centre National de la Recherche Scientifique, priority 2002, dated 2008).

Columns and labels:
[1] = tested on: 30H12 monoclonal antibody; assay: Competitive binding to PSA-NCAM expressing cells (30H12); set-up: dose or concentration left out as unconfirmed
Protocol: FIGS. 12B, 12C and 12D: competitive binding to PSA-NCAM expressing cells. B: pre-incubation of p65 (1 mM) or p66 (1 mM) with MenB anti-PSA antibody. C: 30H12 anti-PSA antibody without peptide. […]
(§1) The specificity of p65 and p66 peptides was tested in a competition assay using anti-PSA antibodies and PSA-NCAM expressing cells. […] The binding specificity was examined in greater detail by testing peptide recognition by another anti-PSA mononclonal antibody (MenB). […] Thus, p65 and p66 mimotopes appear to be specific for a unique (idiotypic) determinant.

[2] = tested on: subventricular zone explants (neuronal precursors); assay: Subventricular zone (SVZ) explant culture: cell migration in vitro; format: cell-based, mouse; settings: for Rate of migration of the neuronal precursors compared to the corresponding control peptide: FIG. 7, controls reverse p65 and p22
Protocol: Cultures of SVZ explants were performed as described in Chazal et al., precited. Briefly, 1-day-old mice were killed by rapid decapitation. Brains were dissected out and sectionned by Vibratome (Leica). The SVZ from the lateral wall of the anterior lateral ventricle horn was dissected out in HBSS medium (LIFE TECHNOLOGIES) and cut into 200-300 μm diameter explants. The explants were mixed with Matrigel (BECKTON DICKINSON) and cultured in four-well dishes. After polymerisation, the gel was overlaid with 400 μl of serum-free medium containing B-27 supplement (LIFE TECHNOLOGIES), in the presence or the absence of 40 μM of peptides (p65, p66, reverse p65, p21 or p22) and 70 U of Endo N per milliliter.
After 48 h in culture, explants were examining directly (SVZ) or after overnight fixation with a 4% paraformaldehyde solution in PBS and immunostaining (DRGs). Observation was done using 2, 5×, 5×, 10× and 32× objectives (Axiovert 35M, ZEISS). Images were collected with a video camera (Cool View, PHOTONIC SCIENCE) and analysed using image-processing software (Visiolab1000, BIOCOM). Mean migration distance (calculated on five different experiments, including at least five explants per condition) or mean length of the longest neurite (calculated on two different experiments, including at least eight explants per condition), was the distance in micrometers between the explant edge and the border of the cell migration front. Four measurements were performed for each explant. The significance of the differences between the control and the different experimental conditions was calculated by Student's t test.

MenB anti-PSA antibody = assay: Competitive binding to PSA-NCAM expressing cells (MenB)
Protocol: FIGS. 12B, 12C and 12D: competitive binding to PSA-NCAM expressing cells. B: pre-incubation of p65 (1 mM) or p66 (1 mM) with MenB anti-PSA antibody. C: 30H12 anti-PSA antibody without peptide. D: pre-incubation of p65 (1 mM) or p66 (1 mM) with 30H12 anti-PSA antibody.
as §1

30H12 antibody = assay: ELISA with peptide-BSA conjugate on 30H12-coated plates; format: binding; settings: no competitor, FIG. 12A
Excerpt: FIG. 12A: ELISA using 30H12 anti-PSA monoclonal antibody-coated plates.
The specificity of the cyclic peptides was investigated in an ELISA assay using plates coated with 30H12 antibody, following the protocol as described above for the competitive ELISA, with the exception that the competitor was omitted.

BSA = BSA (Bos taurus, UniProt P02769); assay: Peptide-BSA conjugate ELISA, control wells coated only with blocking solution (BSA); format: binding; settings: biotinylated peptide-BSA conjugate, BSA-blocked wells, no mAb
BSA, sequence (P02769 25-607): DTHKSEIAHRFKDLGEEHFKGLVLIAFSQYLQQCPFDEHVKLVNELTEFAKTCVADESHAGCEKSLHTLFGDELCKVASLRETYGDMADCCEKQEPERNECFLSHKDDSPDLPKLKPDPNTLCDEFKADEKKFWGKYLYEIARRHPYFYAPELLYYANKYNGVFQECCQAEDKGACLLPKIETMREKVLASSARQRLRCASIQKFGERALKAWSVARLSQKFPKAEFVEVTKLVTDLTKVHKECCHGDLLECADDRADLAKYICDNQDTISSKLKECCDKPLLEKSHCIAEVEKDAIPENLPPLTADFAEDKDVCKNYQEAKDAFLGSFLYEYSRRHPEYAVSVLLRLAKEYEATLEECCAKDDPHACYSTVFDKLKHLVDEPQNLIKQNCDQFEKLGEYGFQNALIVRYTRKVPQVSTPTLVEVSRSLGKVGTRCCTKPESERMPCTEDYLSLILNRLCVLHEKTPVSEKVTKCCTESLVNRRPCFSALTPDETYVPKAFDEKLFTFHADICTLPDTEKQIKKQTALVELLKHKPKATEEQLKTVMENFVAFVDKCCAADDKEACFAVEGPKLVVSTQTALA
Excerpt: • mAb 735 and 30H12 • MaxiSorp™ plates (NUNC) for coating the antibody: ELISA plates • microtiter plates (NUNC) for peptide dilution: dilution plates • Biotinylated peptide-BSA conjugates prepared as above described • Extravidin alkaline phosphatase-avidin conjugate (SIGMA E2636) • p-nitrophenyl-phosphatase alkaline substrate (SIGMA 104-105) 2.1.2) Buffers • PBS pH 7.4 • Blocking solution: 0.5% BSA in PBS • TBS • TBST: TBS containing 0.05% Tween 20 • Extravidin alkaline phosphatase-avidin conjugate solution: 1/5000 in TBST • Alkaline phosphatase substrate solution; 1 tablet in 5 ml 50 mM NaHCO3, 1 mM MgCl2 solution, pH 9.6. • mixed competitor solution: 1 mM colominic acid with a peptide-BSA conjugate gradient in TBST 2.1.3) Method
Maxisorp™ plate wells were coated with 100 μl mAb solution (25 μg/ml) for 2 h at room temperature. The control wells of the ELISA plates were only coated with the blocking solution. In parallel, the peptide-BSA conjugate dilution plates were blocked with 200 μl blocking solution for 2 h. The antibody coated wells and the control wells were blocked with 200 μl blocking solution for 1 h. In parallel the peptide-BSA conjugate dilution plates were washed 6 times with TBST and 120 μl TBST was added to the wells. An appropriate volume of peptide-BSA conjugate solution was added to the first well and the volume adjusted to 140 μl with TBST. The peptide-BSA conjugate in well one was diluted in the ratio 1/7 by taking 20 μl out of the first well and transferring into the second also to achieve the total volume of 140 μl. This was repeated for the remaining wells. The peptide-BSA conjugate dilutions for the control wells were done the same way. The blocked ELISA plates were washed 6 times with TBST and the peptide-BSA conjugate dilutions or 100 μl of the mixed competitor solution was added to the wells. After incubation for 1 h, the wells were washed 10 times with TBST and 100 μl of the alkaline phosphatase substrate solution was added to the wells. The plates were read out after 10 to 60 min using a microplate reader at 405 nm.
The specificity of peptide p21 (SEQ ID NO: 1) was investigated in a competition ELISA using biotinylated p21-BSA conjugate and a randomized variant of p21 (p22) conjugate as a control. The results presented in Tables X and XI are expressed as percentage of binding by comparison with peptide p21 at the highest concentration (9.45 10^-5 M) which corresponds to 100% binding.

## CSSVTAWTTGCG [p65]
[1]
  Binding of 30H12 monoclonal antibody to PSA-NCAM expressing cells after pre-incubation with peptide: prevented its binding
[2]
  Rate of migration of the neuronal precursors compared to the corresponding control peptide: significant increase
[2]; SVZ explants in Matrigel, FIG. 4
  Rate of migration of the neuronal precursors and chain-like arrangement: increases the rate of migration
[2]; SVZ explants of NCAM −/− mice, FIG. 6
  Migration of precursors from NCAM −/− mice: did not reverse the impaired migration
[2]; dose-response curve
  Concentration from which the optimal effect on cell migration is observed: ≥ 0.4 µM
[2]; with endo N treatment
  PSA-dependence of the migration effect: abolished by endo N treatment
MenB anti-PSA antibody; FIG. 12C
  Recognition of PSA-NCAM by MenB after pre-incubation with peptide: did not prevent recognition of PSA-NCAM
MenB anti-PSA antibody; in words
  Antibody specificity of peptide binding (30H12 versus MenB): bind only to 30H12
30H12 antibody
  Binding of cyclic peptides to 30H12 antibody in ELISA: highest binding

## DSPLVPFIDFHP [p21]
BSA; peptide 1.62 10^−9 M
  Binding of peptide to BSA control wells (percentage of binding): 0 ± 0%
BSA; peptide 1.67 10^−5 M
  Binding of peptide to BSA control wells (percentage of binding): 1 ± 0%
BSA; peptide 2.86 10^−9 M
  Binding of peptide to BSA control wells (percentage of binding): 0 ± 0%
BSA; peptide 2.94 10^−6 M
  Binding of peptide to BSA control wells (percentage of binding): 0 ± 0%
BSA; peptide 5.04 10^−10 M
  Binding of peptide to BSA control wells (percentage of binding): 0 ± 0%
BSA; peptide 5.20 10^−7 M
  Binding of peptide to BSA control wells (percentage of binding): 0 ± 0%
BSA; peptide 8.89 10^−11 M
  Binding of peptide to BSA control wells (percentage of binding): 0 ± 0%
BSA; peptide 9.27 10^−8 M
  Binding of peptide to BSA control wells (percentage of binding): 0 ± 0%
BSA; peptide 9.45 10^−5 M
  Binding of peptide to BSA control wells (percentage of binding): 3 ± 1%
[2]
  Rate of migration of the neuronal precursors compared to the corresponding control peptide: significant decrease
